Results published in US20250115578A1, “AROMATIC FUSED RING NAV1.8 INHIBITOR, AND USE THEREOF” (CHENGDU KANGHONG PHARMACEUTICAL CO., LTD., priority 2022, published 2025).
Values after ≈ are worked out from the molar mass of the structure shown.

Columns and labels:
[1] = Stability assay for human liver microsomes in vitro; format: in vitro ADME; conditions: 1 μM compound, 0.5 mg/mL liver microsomes, read-out: Human liver microsome stability T1/2
Protocol: • Human liver microsomes, purchased from Corning or Xenotech, stored in a −80° C. refrigerator. • Nicotinamide adenine dinucleotide phosphate (NADPH), Chem-impex international, 00616 • Control compounds: testosterone, diclofenac, propafenone
• Water bath (HH-60, Guohua, Changzhou, China) • Pipette workstation (PP-550DS, Apricot, Covina, USA) • Centrifuge (5810R, Eppendorf, Hamburg, Germany) • Mass Spectrometer (Sciex API 4000, Singapore) • High Performance Liquid Chromatography (LC 20-AD, Shimadzu, Kyoto, Japan) • Sampler (ADDA, Apricot Designs, California, USA)
• Stock solution: 10 mM in DMSO • Working solution concentration preparation: 10 mM stock solution was diluted to 100 μM with 100% acetonitrile (organic phase content: 99% ACN, 1% DMSO)
Two 96-well incubation plates were named T60 incubation plate and NCF60 incubation plate.
445 μL microsomal working solution (liver microsomal protein concentration: 0.56 mg/mL) was added to the T60 and NCF60 incubation plates respectively, then the incubation plates above were placed in a water bath at 37° C. for pre-incubation approximately 10 minutes.
After the pre-incubation finished, 5 μL of the test compound working solution was added to the T60 and NCF60 incubation plates respectively, and mixed well. 50 μL potassium phosphate buffer was added to each well on the NCF60 incubation plate to start the reaction. 180 μL termination solution (acetonitrile solution containing 200 ng/mL tolbutamide and 200 ng/mL labetalol) and 6 uL working solution of NADPH regeneration system were added to the TO termination plate, and 54 μL samples were removed from the T60 incubation plate to the TO termination plate (TO sample generated). The reaction was initiated by adding 44 μL of NADPH regenerating system working solution per well on the T60 incubation plate. Only 54 μL microsomal working solution, 6 uL NADPH regeneration system working solution, and 180 μL termination solution were added to the Blank plate. Therefore, in the samples of the test or control compounds, the final reaction concentration of the compounds, testosterone, diclofenac and propafenone was 1 μM, the concentration of the liver microsomes was 0.5 mg/mL, and the final concentration of DMSO and acetonitrile in the reaction system was 0.01% (v/v) and 0.99% (v/v), respectively.
After incubation for an appropriate time (e.g. 5, 10, 20, 30, and 60 minutes), 180 μL of termination solution (acetonitrile solution containing 200 ng/mL tolbutamide and 200 ng/mL labetalol) was added to the sample hole of each termination plate, respectively. After that, 60 μL sample was removed from the T60 incubation plate to terminate the reaction.
All sample plates were shaken evenly and centrifuged at 3220×g for 20 min. Then 80 μL supernatant was taken from each well and diluted to 240 μL pure water for LC-MS/MS analysis.
All samples were injected for analysis.

[2] = target: hNav1.8 (Homo sapiens (Human), UniProt Q9Y5Y9); assay: Manual patch clamp, Method 1 (CHO cell line stably expressing hNav1.8); format: cell-based; conditions: for inhibition at 0.01 µM: 10 nM; for inhibition at 0.01 µM / inhibition at 0.1 µM: Method 1, CHO-hNav1.8, read-out: Inhibition rate of hNav1.8; for inhibition at 0.1 µM: 100 nM; for IC50: Method 1, CHO-hNav1.8, manual patch clamp, resting state, read-out: IC50 inhibitory activity against hNav1.8
Excerpt: The patch clamp technique is known as the “gold standard” for studying ion channels, and it uses glass microelectrodes to seal the cell membrane to measure the currents of various membrane channel. […] Patch clamp technology can evaluate the inhibition strength of different compounds on different states of Navs by measuring the changes of membrane channel currents after different compounds bind to different states of Navs.
The representative compounds of the present invention used stable CHO or HEK293 cell lines transfected with specific ion channels to measure the effect of the compounds on Nav1.8 currents by manual patch clamp test, to evaluate their inhibition strength.
The assay protocol of manual patch clamp is as follows:
CHO cell lines with stable expression of hNav1.8 were cultured in F12 medium containing 10% fetal bovine serum at a constant temperature of 37° C., and the carbon dioxide concentration was maintained at 5%. The old culture medium was removed and washed once with PBS, then 1 mL 0.25%-Trypsin-EDTA solution was added and incubated at 37° C. for 1 min. When the cells were detached from the bottom of the dish, 5 mL of the complete medium preheated at 37° C. was added, and the aggregated cells were separated by gently blowing with a straw. The cell suspension was transferred into a sterile centrifuge tube and centrifuged at 1000 rpm for 5 min to collect cells. The cells were then inoculated into a cell culture dish with a diameter of 6 cm (2.5×10^5 cells/petri dish, 5 mL medium) for expansion or maintenance.
In order to maintain the electrophysiological activity of the cells, the cell density must be less than 80%.
The cells were separated with 0.25%-Trypsin-EDTA before the assay, and 5×10^3 cells were seeded on a cover slip and cultured in a 24-well plate (final volume: 500 μL) for 18 h. Then the assay was conducted.
The compounds prepared in the examples of the present invention were dissolved in dimethyl sulfoxide (DMSO) and prepared into DMSO stock solution with a concentration of 10 mM for assay. And it was diluted to various concentrations with extracellular solution (140 mM NaCl, 3.5 mM KCl, 1 mM MgCl2, 2 mM CaCl2), 10 mM Glucose, 10 mM HEPES, 1.25 mM NaH2PO4, pH=7.4 regulated by NaOH), and the final concentration of DMSO in each compound sample was 0.10% or less.
A capillary glass pipette (BF150-86-10, Sutter Instruments) was pulled into a recording electrode with a micropipette puller (P97, Sutter Instruments). The micromanipulator (MP285, Sutter Instruments) was manipulated under an inverted microscope (IX71, Olympus) to make the recording electrode contact the cell and negative pressure suction was applied to achieve a GQ seal. Then, rapid capacitance compensation was performed, and negative pressure was continued, cell membrane was broken by suction, and whole cell recording mode was formed. Then the slow capacitance was compensated and the membrane capacitance and series resistance were recorded without leakage compensation. When the whole cell recording current was stabilized, dosing was initiated, and the next concentration was detected after acting 5 minutes of each drug concentration. Multiple cells were independently repeated during the recording period. All electrophysiological assays were performed at room temperature. Specifically, 6 concentrations (measuring IC50) or 2 concentrations (preliminary screening) were set for each compound, and the percentage of inhibition of sodium channels was determined by calculating the relative percentage of peak current generated before and after each concentration compound treated cells, and the IC50 value or percentage of inhibition at a specific concentration was calculated using IGOR pro software.

[3] = Assay of kinetic solubility; format: physicochemical; conditions: aqueous buffer, kinetic from dmso stock, pH 3.5 phosphate buffer, 25° C.
Protocol: The stock solutions of the test compound and the standard progesterone were prepared in DMSO at the concentration of 10 mM.
30 μL of stock solutions at 10 mM of the test compounds and standard substance were placed in order into their proper 96-well plate. 970 μL phosphate buffer at the specified pH was added to the proper vial of the sample plate. The assay was performed in duplicate. A stirring stick was added to each vial and the teflon/silicone plug was capped. The sample tray was then placed in the Eppendorf Thermomixer Comfort and shaken at 1100 RPM at 25° C. for 2 hours. After 2 hours, plugs were removed, a big magnet was used to remove the stirring sticks, and samples were transferred from the sample plate to the filter plate. Vacuum pump was used to create negative pressure and filtered the samples. Transferred 5 μL of the filtrate to the new sample plate, then added 5 μL DMSO and 490 μL water/acetonitrile (V/V=1/1) to dilute the solvent. The dilution factor may be adjusted according to the solubility values of the substances to be tested or the strength of its LC-MS signal response.
From the 10 mM DMSO stock solution, 15 μL of that was transferred into the empty plate and 485 μL DMSO was added to prepare a 300 μM standard solution. From the 300 μM standard solution plate, 5 μL of that was transferred to another empty plate and 5 μL phosphate buffer at specified pH and 490 μL water/acetonitrile (V/V=1/1) dilution solvent were added to the standard solution to get a final concentration of 3 μM. The concentration of the standard solution may be adjusted according to the strength of its LC-MS signal response.
The sample plate was placed into the sample tray of the automatic sampler and the samples were evaluated by LC-MS/MS analysis.
All calculations were carried out by Microsoft Excel.
The sample filtrate was analyzed and quantified against a standard of known concentrations using LC-MS spectral peaks to identify and quantify. The solubility values of the control drug and the compounds to be tested were calculated as the following formula: • [Sample]: concentration of the sample • AREASample: peak area of the sample • INJ VOLStd: standard sample injection volume • DFSample: sample dilution factor • [STD]: standard substance concentration • AREAStd: peak area of standard substance • INJ VOLSample: sample injection volume

Sequence of hNav1.8 (Q9Y5Y9 whole entry): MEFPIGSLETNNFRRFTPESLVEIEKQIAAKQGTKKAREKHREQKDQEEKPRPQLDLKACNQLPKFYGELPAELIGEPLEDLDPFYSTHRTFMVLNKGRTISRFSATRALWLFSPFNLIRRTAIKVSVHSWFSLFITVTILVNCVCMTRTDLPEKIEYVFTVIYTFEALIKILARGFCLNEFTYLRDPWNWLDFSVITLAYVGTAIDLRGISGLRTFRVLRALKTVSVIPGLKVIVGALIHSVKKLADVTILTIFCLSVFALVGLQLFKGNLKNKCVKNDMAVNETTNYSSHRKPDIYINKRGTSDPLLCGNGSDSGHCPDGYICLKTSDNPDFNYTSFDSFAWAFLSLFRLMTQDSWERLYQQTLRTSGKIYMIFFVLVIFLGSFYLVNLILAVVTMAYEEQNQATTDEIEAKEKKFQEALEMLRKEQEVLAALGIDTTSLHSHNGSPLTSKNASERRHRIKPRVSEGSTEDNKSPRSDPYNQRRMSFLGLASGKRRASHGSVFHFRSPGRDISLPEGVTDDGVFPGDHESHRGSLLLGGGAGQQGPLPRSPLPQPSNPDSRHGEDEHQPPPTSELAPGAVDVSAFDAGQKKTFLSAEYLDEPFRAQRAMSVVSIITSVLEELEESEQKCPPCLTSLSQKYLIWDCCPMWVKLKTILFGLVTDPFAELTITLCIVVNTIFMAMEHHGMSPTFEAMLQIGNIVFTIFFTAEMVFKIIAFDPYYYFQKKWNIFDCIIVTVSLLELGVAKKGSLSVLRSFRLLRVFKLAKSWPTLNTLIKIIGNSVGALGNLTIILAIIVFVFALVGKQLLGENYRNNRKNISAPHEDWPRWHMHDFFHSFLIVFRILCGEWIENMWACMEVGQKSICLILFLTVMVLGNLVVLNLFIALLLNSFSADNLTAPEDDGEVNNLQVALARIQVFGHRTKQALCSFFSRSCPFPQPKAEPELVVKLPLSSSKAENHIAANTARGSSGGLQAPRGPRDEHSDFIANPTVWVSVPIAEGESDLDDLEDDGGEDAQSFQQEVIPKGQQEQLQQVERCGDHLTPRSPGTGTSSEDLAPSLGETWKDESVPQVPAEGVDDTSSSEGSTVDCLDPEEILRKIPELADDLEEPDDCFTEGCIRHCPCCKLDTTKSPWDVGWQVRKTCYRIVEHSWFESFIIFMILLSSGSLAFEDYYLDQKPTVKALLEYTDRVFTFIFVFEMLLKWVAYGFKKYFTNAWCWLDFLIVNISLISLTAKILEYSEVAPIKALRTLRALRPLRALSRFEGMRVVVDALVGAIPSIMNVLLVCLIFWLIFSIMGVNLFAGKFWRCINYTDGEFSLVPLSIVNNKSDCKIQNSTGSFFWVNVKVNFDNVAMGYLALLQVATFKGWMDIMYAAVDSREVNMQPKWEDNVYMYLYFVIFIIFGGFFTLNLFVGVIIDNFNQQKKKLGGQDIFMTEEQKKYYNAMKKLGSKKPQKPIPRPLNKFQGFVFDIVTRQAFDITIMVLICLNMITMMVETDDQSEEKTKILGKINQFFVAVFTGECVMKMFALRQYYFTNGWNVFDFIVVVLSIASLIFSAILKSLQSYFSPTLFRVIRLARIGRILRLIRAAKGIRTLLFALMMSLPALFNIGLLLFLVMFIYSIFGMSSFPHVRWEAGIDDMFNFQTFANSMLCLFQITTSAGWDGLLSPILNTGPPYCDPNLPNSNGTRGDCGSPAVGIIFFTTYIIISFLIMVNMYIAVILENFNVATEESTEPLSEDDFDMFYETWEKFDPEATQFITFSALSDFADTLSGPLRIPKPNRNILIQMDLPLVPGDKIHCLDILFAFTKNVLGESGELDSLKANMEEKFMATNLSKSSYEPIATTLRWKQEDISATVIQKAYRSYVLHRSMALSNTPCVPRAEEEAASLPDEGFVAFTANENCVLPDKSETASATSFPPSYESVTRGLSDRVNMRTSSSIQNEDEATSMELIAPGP

Row | SMILES | half-life at 1 µM [1] [h] | inhibition at 0.01 µM [2] [%] | inhibition at 0.1 µM [2] [%] | solubility kinetic at 2 h [3] [µM] | IC50 [2] [nM]
1 | O=C(Nc1ccc[n+]([O-])c1)c1nc2ccccc2nc1N1CCCC(F)(F)CC1 [Example 01] | > 2.42 | 0.36 | 41.8 | – | –
2 | O=C(Nc1cc[nH]c(=O)c1)c1nc2ccccc2nc1N1CCCC(F)(F)CC1 [Example 03, 3-(4,4-difluoroazepan-1-yl)-N-(2-carbonyl-1,2-dihydropyridin-4-yl)quinoxaline-2-carboxamide] | 1.32 | 19.7 | 70 | – | –
3 | O=C(Nc1cn[nH]c(=O)c1)c1nc2ccccc2nc1N1CCCC(F)(F)CC1 [Example 04, 3-(4,4-difluoroazepan-1-yl)-N-(6-carbonyl-1,6-dihydropyridazin-4-yl)quinoxaline-2-carboxamide] | 1.33 | 3.33 | 46 | – | –
4 | NC(=O)c1cc(NC(=O)c2nc3ccccc3cc2N2CCCC(F)(F)CC2)ccc1F [Example 11, N-(3-carbamoyl-4-fluorophenyl)-3-(4,4-difluoroazepan-1-yl) quinoline-2-carboxamide] | – | 15.3 | 72.8 | – | –
5 | NC(=O)c1cccc(NC(=O)c2cc3cc(F)c(F)cc3nc2N2CCCC(F)(F)CC2)c1 [Example 12, N-(3-carbamoylphenyl)-2-(4,4-difluoroazepan-1-yl)-6,7-difluoroquinoline-3-carboxamide] | – | 95.8 | 100 | – | –
6 | NS(=O)(=O)c1cccc(NC(=O)c2cc3ccccc3nc2N2CCCC(F)(F)CC2)c1 [Example 13, 2-(4,4-difluoroazepan-1-yl)-N-(3-sulfamoylphenyl)quinoline-3-carboxamide] | – | 95.6 | 99.7 | 3.38 (≈ 1.56 µg/mL) | –
7 | NC(=O)c1cc(NC(=O)c2nc3ccccc3cc2N2CCCC(F)(F)CC2)ccn1 [Example 15, N-(2-carbamoylpyridin-4-yl)-3-(4,4-difluoroazepan-1-yl) quinoline-2-carboxamide] | – | 15.4 | 49.9 | – | –
8 | NS(=O)(=O)c1cc(NC(=O)c2cc3cc(F)c(F)cc3nc2N2CCCC(F)(F)CC2)ccn1 [Example 17, 2-(4,4-difluoroazepan-1-yl)-6,7-difluoro-N-(2-sulfamoylpyridine-4-yl)quinoline-3-carboxamide] | > 2.42 | 98.3 | 100 | – | 0.095
9 | NC(=O)c1cc(NC(=O)c2cc3cccnc3cc2N2CCCC(F)(F)CC2)ccn1 [Example 18, N-(2-carbamoylpyridin-4-yl)-7-(4,4-difluoroazepan-1-yl)quinoline-6-carboxamide] | – | -3.14 | 21.5 | – | –
10 | NC(=O)c1cc(NC(=O)c2cc3cccnc3cc2N2CCCC(F)(F)CC2)ccc1F [Example 19, N-(3-carbamoyl-4-fluorophenyl)-7-(4,4-difluoroazepan-1-yl)quinoline-6-carboxamide] | – | 0.44 | 16.6 | – | –
11 | NC(=O)c1cc(NC(=O)c2nc3ccc(Cl)cc3cc2N2CCCC(F)(F)CC2)ccn1 [Example 20, N-(2-carbamoylpyridin-4-yl)-6-chloro-3-(4,4-difluoroazepan-1-yl)quinoline-2-carboxamide] | – | 19.5 | 81.1 | – | –
12 | NC(=O)c1cc(NC(=O)c2cc3cc(F)c(F)cc3nc2N2CCCC(F)(F)CC2)ccc1F [Example 21, N-(3-carbamoyl-4-fluorophenyl)-2-(4,4-difluoroazepan-1-yl)-6,7-difluoroquinoline-3-carboxamide] | 0.943 | – | – | – | 0.36
13 | COc1ccc2cc(C(=O)Nc3ccnc(C(N)=O)c3)c(N3CCCC(F)(F)CC3)nc2c1 [Example 22, N-(2-carbamoylpyridin-4-yl)-2-(4,4-difluoroazepan-1-yl)-7-methoxyquinoline-3-carboxamide] | – | – | 90.7 | – | –
14 | CNS(=O)(=O)c1cc(NC(=O)c2cc3cc(F)c(F)cc3nc2N2CCCC(F)(F)CC2)ccn1 [Example 29, 2-(4,4-difluoroazepan-1-yl)-6,7-difluoro-N-(2-(N-methylsulfamoyl)pyridin-4-yl)quinoline-3-carboxamide] | – | – | 83.7 | < 1.56 | –
